According to PubChem BioAssay (NCI):
Where “and” joins values, the source holds several entries; their conditions need not be identical. Equal entries are not always repeated.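 1) Cells in 96-well plates. 2) Compound, 48 h, 5 concentrations. 3) Linear interpolation between surrounding doses. 4) Unreached endpoint = highest concentration. Abbreviation: GI50, concentration required for 50% inhibition of growth. Definition used: TGI = concentration required for complete inhibition of growth.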

What was measured:
Test in all cases: NCI anticancer screen, dose series, 48 h
SN12C renal = system: SN12C renal
KM12 colon = system: KM12 colon
MOLT-4 leukemia = system: MOLT-4 leukemia
U251 CNS = system: U251 CNS
COLO 205 colon = system: COLO 205 colon
NCI-H23 lung = system: NCI-H23 lung
NCI/ADR-RES ovarian = system: NCI/ADR-RES ovarian
BT-549 breast = system: BT-549 breast
MDA-MB-231 breast = system: MDA-MB-231 breast
DU-145 prostate = system: DU-145 prostate

Structure (SMILES) | GI50 (SN12C renal) | TGI (SN12C renal) | GI50 (KM12 colon) | TGI (KM12 colon) | GI50 (MOLT-4 leukemia) | TGI (MOLT-4 leukemia) | TGI (U251 CNS) | GI50 (COLO 205 colon) | TGI (COLO 205 colon) | GI50 (NCI-H23 lung) | TGI (NCI-H23 lung) | GI50 (NCI/ADR-RES ovarian) | TGI (NCI/ADR-RES ovarian) | GI50 (BT-549 breast) | TGI (BT-549 breast) | GI50 (MDA-MB-231 breast) | TGI (MDA-MB-231 breast) | GI50 (DU-145 prostate) | TGI (DU-145 prostate) | GI50 (U251 CNS)
O=C1NC(=O)C2C3C=CC(C12)C1C2C(=O)NC(=O)C2C31 (centres undefined) | 419 µM | 250 µM and > 1000 µM | > 1000 µM | 250 µM and > 1000 µM | 160 µM | 201 µM and 850 µM | 244 µM and > 1000 µM | > 62.6 µM and 108 µM | 198 µM and > 892 µM | 727 µM | 250 µM and > 1000 µM | > 1000 µM | > 1000 µM | 313 µM | > 1000 µM | > 801 µM | > 1000 µM | > 619 µM | > 1000 µM | 
COc1nc(N)nc2nc[nH]c12 | 536 µM and 552 µM | 500 µM and 800 µM and > 1000 µM | > 800 µM and 842 µM | > 1000 µM | > 800 µM | 500 µM and > 800 µM and > 1000 µM | 500 µM and > 800 µM and > 1000 µM | > 1000 µM | 419 µM and > 800 µM and > 1000 µM | > 800 µM and 888 µM | > 1000 µM | 580 µM | > 739 µM | 580 µM | 500 µM and > 1000 µM | 641 µM | 500 µM and > 1000 µM | 720 µM | 500 µM and > 1000 µM | > 800 µM and 741 µM
O=c1c(Oc2ccc(F)cc2F)cc2cnc(NC3CCOCC3)nc2n1C1CC1 | > 25 µM | > 25 µM | > 25 µM | > 25 µM | > 25 µM | > 25 µM | > 25 µM | > 25 µM | > 25 µM | > 25 µM | > 25 µM | > 25 µM | > 25 µM | > 25 µM | > 25 µM | > 25 µM | > 25 µM | > 25 µM | > 25 µM | > 25 µM
COc1ccc(Cn2c(Br)c3c(c2-c2cc(OC)c(OC)c(OC)c2)CCc2sc(N)nc2-3)cc1 | 2.15 µM | 14.2 µM | 1.18 µM | > 30 µM | 1.51 µM | > 29.7 µM | 12.7 µM | 1.07 µM | 3.7 µM | 2.69 µM | > 58.3 µM | 0.866 µM | 36.3 µM | 2.39 µM | 9.09 µM | 1.92 µM | 7.1 µM | 2.04 µM | 7.43 µM | 1.3 µM
CC1=C(C(=O)Nc2ccc3[nH]ncc3c2)C(c2ccc(F)cc2)N=C(c2ccc(C(F)(F)F)nc2)N1 (centres undefined) | > 22.9 µM | > 25 µM | 16.3 µM | > 25 µM | 11.9 µM | > 25 µM | > 25 µM | > 25 µM | > 25 µM | 12.8 µM | > 25 µM | 18.5 µM | > 25 µM | 5.28 µM | 18.2 µM | 10.1 µM | > 25 µM | > 25 µM | > 25 µM | 17.1 µM
C=C(C)c1nc(Oc2ccccc2)nc(Oc2ccccc2)n1 |  | 16.4 µM |  | 10.9 µM |  | 1.69 µM | 23.2 µM |  | 17.2 µM |  | 21.5 µM |  | 29.7 µM |  | 13.1 µM |  | 28.9 µM |  | 30.4 µM | 
CC(C)c1ccc2c(c1)CCC1C2CCCC1(C)NCc1ccccc1 (centres undefined) | 5.56 µM | 19.2 µM | 3.07 µM | 11.6 µM | 3.25 µM | 12.1 µM | 15.8 µM | 0.332 µM | 1.11 µM | 5.48 µM | 19.7 µM | 5.84 µM | 19.9 µM | 8.42 µM | 20.8 µM | 3.31 µM | 12.4 µM | 8.61 µM | 24.3 µM | 4.69 µM
FC(F)(F)c1cccc(CNC2CCN(CCc3ccccc3)CC2)c1 | 55.6 µM | > 100 µM | 22.5 µM | 56.6 µM | 20.5 µM | 70.4 µM | 35.6 µM | 16.9 µM | 34.3 µM | 51.8 µM | > 100 µM | 41.9 µM | > 100 µM | 24.8 µM | > 100 µM | 12.6 µM | 35.2 µM | 46.3 µM | > 100 µM | 15.6 µM
CCOC(=O)C#Cc1c(C(=O)OCC)nnn1[C@@H]1O[C@H](COC)[C@@H](OC)[C@H]1OC | 3.81 µM | 14.6 µM | 16.7 µM | 33.3 µM | 1.92 µM | 4.39 µM | 31.3 µM | 1.94 µM | 3.83 µM | 12.3 µM | 26.3 µM | 15.9 µM | 37.3 µM | 13.1 µM | 26 µM | 10.7 µM | 25.1 µM | 10.6 µM | 22.4 µM | 17 µM
CN1CCN(C(=O)/C=C/c2ccc([N+](=O)[O-])o2)CC1 | 13.8 µM | 27.9 µM | 24 µM | > 100 µM | 10.7 µM | 93.4 µM | 55.1 µM | 3.76 µM | 15 µM | 8.49 µM | 22 µM | 14.9 µM | 52.5 µM | 10.1 µM | 21.8 µM | 14.3 µM | 34.7 µM | 9.33 µM | 21.2 µM | 17.1 µM
